# Experiments:
# CETP [1] = biological target: T1, CETP (Homo sapiens, UniProt P11597); assay: Inhibitory effect in vitro on CETP activity in total plasma; format: biochemical; settings: plasma of healthy subject with [3H]CE-HDL3, 37° C., 4 hr; average values
# T1 construct: The donor lipoprotein obtained above was added to plasma of healthy subject; from tissue; host or cells: whole plasma of healthy subject
# T1 sequence (P11597 18-493): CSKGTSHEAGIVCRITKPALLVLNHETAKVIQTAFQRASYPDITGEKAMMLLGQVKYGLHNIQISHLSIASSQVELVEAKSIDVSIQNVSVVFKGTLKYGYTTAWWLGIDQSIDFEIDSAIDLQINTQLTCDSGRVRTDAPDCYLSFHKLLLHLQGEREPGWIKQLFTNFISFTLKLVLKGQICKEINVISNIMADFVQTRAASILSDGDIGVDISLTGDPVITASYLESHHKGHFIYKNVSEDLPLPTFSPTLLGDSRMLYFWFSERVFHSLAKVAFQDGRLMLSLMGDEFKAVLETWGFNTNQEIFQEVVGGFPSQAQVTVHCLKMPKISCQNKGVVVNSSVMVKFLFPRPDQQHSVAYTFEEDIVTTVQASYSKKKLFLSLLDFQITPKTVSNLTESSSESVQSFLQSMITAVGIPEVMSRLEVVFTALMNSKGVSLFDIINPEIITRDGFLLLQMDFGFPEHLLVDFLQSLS
# Method in brief: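 Healthy-donor plasma spiked with [3H]cholesteryl ester-labelled HDL3 (1,000 dpm/μL) was incubated with compound (DMF vehicle) for 4 hr at 37 °C or 4 °C. HDL was separated by MgCl2/dextran sulfate precipitation and supernatant radioactivity counted. IC50 is the concentration giving 50% inhibition of CETP activity.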
# CETP [2] = assay: Inhibitory effect exo vivo on CETP activity in total plasma of normal hamster; settings: single oral dose 3 mg/kg, blood taken 4 hr after administration, average values
# Method: Potassium bromide (KBr) was added to plasma (40 mL) of healthy subject and the mixture was adjusted to have a specific density d=1.125 g/mL. The mixture was subjected to density gradient centrifugation (227,000×g, 4° C., 17 hr) and a fraction showing a specific density of d>1.125 g/mL (HDL3 fraction) was harvested. The obtained fraction was dialyzed against PBS solution [10 mmol/L Na2HPO4; 10 mmol/L NaH2PO4; 0.15 mol/L NaCl; […] (pH 7.4)]. Then, tritium-labeled cholesterol (37 MBq) was dissolved in 95% ethanol, gradually added to the above-mentioned HDL3 fraction with stirring and incubated at 37° C. for 18 hr. [By this operation, tritium-labeled cholesterol was esterified by the action of lecithin acyl transferase (LCAT) present on the HDL3 surface and taken up into HDL3 as tritium-labeled cholesteryl ester ([^3H]CE)]. After incubation, KBr was added, the mixture was adjusted to have a specific density d=1.21 g/mL, subjected to density gradient centrifugation (227,000×g, 4° C., 17 hr) and a fraction of specific density […] was harvested. The obtained fraction was dialyzed against the aforementioned PBS solution to give HDL3 incorporating [^3H]CE ([^3H]CE-HDL3, specific density: 1.125<d<1.21, specific activity: 10,000 dpm/μL), which was used as a donor lipoprotein.
# (§1) The compound of the present invention was suspended in 0.5% methyl cellulose solution and orally administered once to a healthy hamster with a plastic gavage needle. Blood was taken at 2 or 4 hr after the administration and CETP activity in plasma was measured according to the following method.
# The donor lipoprotein obtained above was added to hamster plasma (100 μL) to prepare [^3H]CE-HDL3-containing plasma (ca. 1,000 dpm/μL). The [^3H]CE-HDL3-containing plasma was dispensed to two microtubes by 25 μL each, and one was incubated at 37° C. and the other was incubated at 4° C. for 4 hr each. After ice-cooling, TBS solution (50 μl) containing 1 mol/L magnesium chloride and 2% dextran sulfate was added to each microtube and the mixture was thoroughly stirred. After keeping at […] for 30 min, the mixture was centrifuged (10,000×g, 4° C., 20 min), and the radioactivity in the obtained supernatant (HDL fraction) was measured with a liquid scintillation counter. The radioactivity of the [^3H]CE-HDL3-containing plasma was measured with a liquid scintillation counter, and taken as the total radioactivity. The transfer rate of [^3H]CE was calculated from the following formula using the total radioactivity (Total count), radioactivity by 37° C. incubation (37° C. count) and radioactivity by 4° C. incubation (4° C. count) of the sample of each individual and taken as the CETP activity. CETP activity(transfer ratio (%))={[(4° C. count)−(37° C. count)]/(Total count)}×100
# The CETP activity inhibitory ratio of each compound administration group based on the CETP activity of the solvent administration group as 100% was calculated from the following formula and expressed in %.
# CETP activity inhibitory ratio (%)=100−[(CETP activity of each compound administration group)/(CETP activity of solvent administration group)×100]
# HDL cholesterol = assay: Blood HDL cholesterol increasing effect in normal hamster; format: in vivo; settings: single oral dose 3 mg/kg, versus solvent group, average values; for HDL cholesterol increase content (%) 4 (hr later): 4 hr after administration; for HDL cholesterol increase content (%) 8 (hr later): 8 hr after administration
# Method: as §1
# To the plasma (40 μL) obtained from the above-mentioned animal at 4 or 8 hr after the administration was added 15% polyethylene glycol solution (40 μL) and the mixture was thoroughly stirred. After keeping at room temperature for 10 min, the mixture was centrifuged (10,000×g, 4° C., 20 min) and the cholesterol content (HDL cholesterol content) of the obtained supernatant (HDL fraction) was measured. The increase ratio of the HDL cholesterol content of each compound administration group when the HDL cholesterol content of the solvent administration group as 100% was calculated from the following formula and expressed in %. HDL cholesterol increase ratio(%)=[(HDL cholesterol content of each compound administration group/HDL cholesterol content of solvent administration group)×100]−100
# [3] = Concomitant use test with simvastatin in rabbits on high cholesterol food; format: in vivo, Japanese white rabbits; settings: high cholesterol food for 15 days with simvastatin (0.002%) and/or Example 168 (0.2%), control group = 100%; for HDL3 cholesterol content (%): plasma HDL3 fraction; for ApoA-I content (%): plasma
# Excerpt: For the experiment, 10-week-old male Japanese white rabbits (manufactured by KITAYAMA LABES Co., Ltd.) were used. The animal was acclimated on normal food (RC-4, manufactured by Oriental Bio-Service Co.) and fasted for 24 hr and a high cholesterol food (0.25% cholesterol-added RC-4, manufactured by Oriental Bio-Service Co.) was given by 100 g/day per rabbit (preliminary feeding) for 3 days. On the next day of day 3 of preliminary feeding, blood was taken from the auricular artery before feeding, and the animals were grouped by 6 rabbits per group based on the parameters (HDL cholesterol content, total cholesterol content, triglyceride content) of plasma and body weight.
# Foods were prepared (manufactured by Oriental Bio-Service Co.) by adding simvastatin (0.002%), compound (0.2%) of Example 168, or simvastatin (0.002%)+compound (0.2%) of Example 168 to a high cholesterol food, and each food was given to the grouped animals by 100 g/day per rabbit for 15 days. At 8 hr after feeding on day 15, the total blood was taken from the carotid artery under anesthesia, HDL cholesterol content, total cholesterol content and ApoA-I content in plasma were measured. The arteriosclerosis index was calculated from [(total cholesterol content-HDL cholesterol content)/HDL cholesterol content]. Furthermore, the HDL3 fraction was separated from plasma by ultracentrifugation and the cholesterol content of the fraction was measured. In Table, arteriosclerotic index, ApoA-1 content and HDL3 cholesterol content are shown based on the value of the control group as 100%.
Structure (SMILES),IC50 (CETP [1]) [nM],CETP activity (%) 4 (hr later) (CETP [2]) [%],HDL cholesterol increase content (%) 4 (hr later) (HDL cholesterol) [%],HDL cholesterol increase content (%) 8 (hr later) (HDL cholesterol) [%],Arteriosclerotic index (%) [3] [%],HDL3 cholesterol content (%) [3] [%],ApoA-I content (%) [3] [%]
"CCN(C[C@H]1CC[C@H](CC(=O)O)CC1)c1ccc(OC(F)(F)F)cc1CN(Cc1cc(C(F)(F)F)cc(C(F)(F)F)c1)c1nnn(C)n1.Cl [Example 115, trans-(4-{[N-(2-{[N′-[3,5-bis(trifluoromethyl)benzyl]-N′-(2-methyl-2H-tetrazol-5-yl)amino]methyl}-4-trifluoromethoxyphenyl)-N-ethylamino]methyl}cyclohexyl)acetic acid hydrochloride]",90,62.1,23.3,30.7,,,
"CCN(C[C@H]1CC[C@H](CC(=O)O)CC1)c1ccc(C(F)(F)F)cc1CN(Cc1cc(C(F)(F)F)cc(C(F)(F)F)c1)c1nnn(C)n1.Cl [Example 118, trans-(4-{[N-(2-{[N′-[3,5-bis(trifluoromethyl)benzyl]-N′-(2-methyl-2H-tetrazol-5-yl)amino]methyl}-4-trifluoromethylphenyl)-N-ethylamino]methyl}cyclohexyl)acetic acid hydrochloride]",90,55.4,21.1,31.7,,,
"CCN(C[C@H]1CC[C@H](CC(=O)O)CC1)c1cc(C)c(C(F)(F)F)cc1CN(Cc1cc(C(F)(F)F)cc(C(F)(F)F)c1)c1nnn(C)n1.Cl [Example 142, trans-(4-{[N-(2-{[N′-[3,5-bis(trifluoromethyl)benzyl]-N′-(2-methyl-2H-tetrazol-5-yl)amino]methyl}-5-methyl-4-trifluoromethylphenyl)-N-ethylamino]methyl}cyclohexyl)acetic acid hydrochloride]",60,71.6,20.3,31.9,,,
"CCN(C[C@H]1CC[C@H](CC(=O)O)CC1)c1cc(C(F)(F)F)c(C)cc1CN(Cc1cc(C(F)(F)F)cc(C(F)(F)F)c1)c1nnn(C)n1.Cl [Example 143, trans-(4-{[N-(2-{[N′-[3,5-bis(trifluoromethyl)benzyl]-N′-(2-methyl-2H-tetrazol-5-yl)amino]methyl}-4-methyl-5-trifluoromethylphenyl)-N-ethylamino]methyl}cyclohexyl)acetic acid hydrochloride]",100,42.2,17.0,21.3,,,
"CCCN(C[C@H]1CC[C@H](CC(=O)O)CC1)c1cc(C)c(C(F)(F)F)cc1CN(Cc1cc(C(F)(F)F)cc(C(F)(F)F)c1)c1nnn(C)n1.Cl [Example 157, trans-(4-{[N-(2-{[N′-[3,5-bis(trifluoromethyl)benzyl]-N′-(2-methyl-2H-tetrazol-5-yl)amino]methyl}-5-methyl-4-trifluoromethylphenyl)-N-propylamino]methyl}cyclohexyl)acetic acid hydrochloride]",,80.4,17.9,27.1,,,
"CCCN(C[C@H]1CC[C@H](CC(=O)O)CC1)c1ccc(OC(F)(F)F)cc1CN(Cc1cc(C(F)(F)F)cc(C(F)(F)F)c1)c1nnn(C)n1.Cl [Example 158, trans-(4-{[N-(2-{[N′-[3,5-bis(trifluoromethyl)benzyl]-N′-(2-methyl-2H-tetrazol-5-yl)amino]methyl}-4-trifluoromethoxyphenyl)-N-propylamino]methyl}cyclohexyl)acetic acid hydrochloride]",,55.6,14.8,23.7,,,
"CCN(C[C@H]1CC[C@H](CC(=O)O)CC1)c1cc(C)c(C(F)(F)F)cc1CN(Cc1cc(C(F)(F)F)cc(C(F)(F)F)c1)c1nnn(C)n1 [Example 168, trans-(4-{[N-(2-{[N′-[3,5-bis(trifluoromethyl)benzyl]-N′-(2-methyl-2H-tetrazol-5-yl)amino]methyl}-5-methyl-4-trifluoromethylphenyl)-N-ethylamino]methyl}cyclohexyl)acetic acid methanesulfonate]",,,,,82,141,114
"CCC(C)(C)C(=O)O[C@H]1C[C@@H](C)C=C2C=C[C@H](C)[C@H](CC[C@@H]3C[C@@H](O)CC(=O)O3)[C@H]21 [simvastatin, reference compound]",,,,,53,128,114
